According to patent US6395739B1, “N-phenyl-N′-phenylpopylpiperazine derivatives and process for the preparation” (Zeria Pharmaceutical Co., Ltd., priority 1998, dated 2002):
Where a name gives a salt, the structure may show the parent alone.

How the values were obtained:
α1-adrenoceptor [1] = test: α1-adrenoceptor blocking activity, phenylephrine-induced contraction of rabbit prostate smooth muscle strips; design: species or system Rabbits; conditions: rabbit prostate strip; vs phenylephrine concentration-response curve; test drug 10^-7-10^-5 M for 30 minutes; 10^-5 M propranolol present
Description: (§1) <α1-Adrenoceptor Blocking Activity>
(§2) Rabbits were exsanguinated to death, and the prostatic urethra and the prostate were removed and smooth muscle strips were prepared. Each strip was suspended in a 37° C. Krebs-solution-containing organ bath which had been bubbled with 95% O2 and 5% CO2. Isometric contraction under a resting tension of 1 g was recorded by an isometric transducer (by Nihon Koden: TB-651T) on a pen-type recorder (product of Nihon Denki San'ei: RECTI HORIZ 8K).
(§3) After the strips had been equilibrated for 60 minutes, contractions were elicited by use of a certain concentration of phenylephrine (10^−5 M). Subsequently, the organ bath was washed with a physiological solution, and the above procedure was repeated at 60-minute intervals of resting time until constant constriction responses of the strips were obtained. Next, phenylephrine was added cumulatively to organ bath(10^−7-3×10^−4 M), to thereby obtain concentration-response curves (control). After the resting period of 60 minutes following washing of the strip, test samples (DMSO solutions containing the test drug; 10^−7-10^−5 M) were treated for 30 minutes, and concentration-response curves of phenylephrine were obtained.
(§4) The composition of the physiological solution was as follows: NaCl 118.4 mM, KCl 4.7 mM, MgCl2 1.2 mM, CaCl2 2.5 mM, NaHCO3 25.0 mM, glucose […], and KH2PO4 1.2 mM.
(§5) In all cases, 10^−5 M propranolol (β-adrenoceptor antagonist) was added to the physiological solution 10 minutes before test sample was treated with strip.
(§6) The potency of each test drug with regard to the α1-adrenoceptor blocking activity was evaluated on the basis of calculation of pA2 (inverse of the logarithm of the concentration by mole of the antagonist which, in the presence of the antagonist, requires twice the concentration of the agonist for providing the same effect as required in the absence of the antagonist).

α1-adrenoceptor [2] = test: α1-adrenoceptor blocking activity, phenylephrine-induced contraction of rabbit prostatic urethra smooth muscle strips; design: species or system Rabbits; conditions: rabbit prostatic urethra strip; vs phenylephrine concentration-response curve; test drug 10^-7-10^-5 M for 30 minutes; 10^-5 M propranolol present
Description: as §1, §2, §3, §4, §5, §6

Row | SMILES | pA2 prostate (α1-adrenoceptor [1]) | pA2 Urethra (α1-adrenoceptor [2])
1 | COc1ccccc1N1CCN(CC[C@H](Oc2ccc(C(=O)c3c[nH]c4ccccc34)cc2)c2ccc(C)cc2)CC1.Cl [Example 3, (S)-3-[4-[3-[4-(2-methoxyphenyl)piperazin-1-yl]-1-(4-methylphenyl)propoxy]benzoyl]indole hydrochloride] | 6.89 | 6.29
2 | COc1ccccc1N1CCN(CC[C@H](Oc2ccc(C(=O)O)cc2)c2ccc(C)cc2)CC1 [Example 2, (S)-4-[3-[4-(2-methoxyphenyl)piperazin-1-yl]-1-(4-methylphenyl)propoxy]benzoic acid] | 8.67 | 8.73
3 | COc1ccccc1N1CCN(CC[C@H](Oc2ccc(C#N)cc2)c2ccc(C)cc2)CC1 [Example 1, (S)-4-[3-[4-(2-methoxyphenyl)piperazin-1-yl]-1-(4-methylphenyl)propoxy]benzonitrile dihydrochloride] | 8.00 | 8.44
